The assay has as its target T1, PD-1/PD-L1 (Homo sapiens, UniProt Q9NZQ7).
T1 construct: made in house; host or cells: HEK293T
Put plainly: PD-1/PD-L1 Homogenous Time-Resolved Fluorescence (HTRF) binding assay. The following applies: PD-L1-His 10 nM, PD-1-Ig 20 nM; value given as range class; read-out: Range or IC50. The method, boiled down: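 Compounds are tested for blocking the PD-1/PD-L1 interaction in dPBS supplemented with 0.1% BSA and 0.05% (v/v) Tween-20. Tagged proteins are detected with Eu-cryptate anti-Ig and APC anti-His at 1 and 20 nM final.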
(In general: TR-FRET usually uses a lanthanide donor and a delayed reading to cut background.)
T1 sequence (Q9NZQ7 with tags, fused parts or gaps): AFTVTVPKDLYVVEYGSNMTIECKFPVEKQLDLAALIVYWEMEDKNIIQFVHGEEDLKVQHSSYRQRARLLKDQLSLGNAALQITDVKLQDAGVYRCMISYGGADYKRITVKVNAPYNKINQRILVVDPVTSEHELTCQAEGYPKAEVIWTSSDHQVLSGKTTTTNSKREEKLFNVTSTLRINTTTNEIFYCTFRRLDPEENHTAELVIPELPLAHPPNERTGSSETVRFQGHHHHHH
What is called IC50 is the midpoint of a concentration-inhibition curve. Regarding `Cc1c(OCCCN2CC[C@@H](O)C2)cccc1-c1cccc(COc2cc(OCc3cncc(C#N)c3)c(CN[C@H](CO)C(=O)O)cc2Cl)c1` [Example 3016, (R)-2-((5-chloro-2-((5-cyanopyridin-3-yl)methoxy)-4-((3′-(3-((R)-3-hydroxypyrrolidin-1-yl)propoxy)-2′-methyl-[1,1′-biphenyl]-3-yl)methoxy)benzyl)amino)-3-hydroxypropanoic Acid], the IC50 was 0.21 to 10 nM. Consider `Cc1c(OCCCN2CC[C@@H](O)C2)cccc1-c1cccc(COc2cc(OCc3cncc(C#N)c3)c(CN[C@](C)(CO)C(=O)O)cc2Cl)c1Cl` [Example 3017, (R)-2-((5-chloro-4-((2-chloro-3′-(3-((R)-3-hydroxypyrrolidin-1-yl)propoxy)-2′-methyl-[1,1′-biphenyl]-3-yl)methoxy)-2-((5-cyanopyridin-3-yl)methoxy)benzyl)amino)-3-hydroxy-2-methylpropanoic Acid], for which the IC50 is 0.21 to 10 nM. The result for `Cc1c(COc2cc(OCc3cncc(C#N)c3)c(CN[C@](C)(CO)C(=O)O)cc2Cl)cccc1-c1cccc(OCCCN2[C@@H]3CC[C@H]2C[C@@H](O)C3)c1` [Example 3019, (R)-2-((5-chloro-2-((5-cyanopyridin-3-yl)methoxy)-4-((3′-(3-((1R,3R,5S)-3-hydroxy-8-azabicyclo[3.2.1]octan-8-yl)propoxy)-2-methyl-[1,1′-biphenyl]-3-yl)methoxy)benzyl)amino)-3-hydroxy-2-methylpropanoic Acid] reads 0.21 to 10 nM; that for `Cc1ccccc1-c1cccc(COc2cc(OCc3cncc(C#N)c3)c(CN[C@@](C)(CO)C(=O)O)cc2Cl)c1C` [Example 3020, (S)-2-((5-chloro-2-((5-cyanopyridin-3-yl)methoxy)-4-((2,2′-dimethyl-[1,1′-biphenyl]-3-yl)methoxy)benzyl)amino)-3-hydroxy-2-methylpropanoic Acid], 0.21 to 10 nM. Next, `Cc1ccccc1-c1cccc(COc2cc(OCc3cncc(C#N)c3)c(CN[C@@H](CO)C(=O)O)cc2Cl)c1C` [Example 3021, (S)-2-((5-chloro-2-((5-cyanopyridin-3-yl)methoxy)-4-((2,2′-dimethyl-[1,1′-biphenyl]-3-yl)methoxy)benzyl)amino)-3-hydroxypropanoic Acid]: 0.21 to 10 nM; `Cc1ccccc1-c1cccc(COc2cc(OCc3cncc(C#N)c3)c(CN[C@](C)(CO)C(=O)O)cc2Cl)c1C` [Example 3022, (R)-2-((5-chloro-2-((5-cyanopyridin-3-yl)methoxy)-4-((2,2′-dimethyl-[1,1′-biphenyl]-3-yl)methoxy)benzyl)amino)-3-hydroxy-2-methylpropanoic Acid]: 0.21 to 10 nM. Next, `Cc1ccccc1-c1cccc(COc2cc(OCc3cncc(C#N)c3)c(CN3CCCC[C@H]3C(=O)O)cc2Cl)c1C` [Example 3023, (S)-1-(5-chloro-2-((5-cyanopyridin-3-yl)methoxy)-4-((2,2′-dimethyl-[1,1′-biphenyl]-3-yl)methoxy)benzyl)piperidine-2-carboxylic Acid]: 0.21 to 10 nM.

For `COc1c(COc2cc(OCc3cncc(C#N)c3)c(CN[C@](C)(CO)C(=O)O)cc2Cl)cccc1-c1cccc(OCCCN2CC[C@@H](O)C2)c1C` [Example 3025, (R)-2-((5-chloro-2-((5-cyanopyridin-3-yl)methoxy)-4-((3′-(3-((R)-3-hydroxypyrrolidin-1-yl)propoxy)-2-methoxy-2′-methyl-[1,1′-biphenyl]-3-yl)methoxy)benzyl)amino)-3-hydroxy-2-methylpropanoic Acid], the IC50 fell in the range of 0.21 to 10 nM. Next, `Cc1cc(COc2cc(OCc3cncc(C#N)c3)c(CN[C@](C)(CO)C(=O)O)cc2Cl)c(C)c(-c2cccc(OCCCN3CC[C@@H](O)C3)c2C)c1` [Example 3026, (R)-2-((5-chloro-2-((5-cyanopyridin-3-yl)methoxy)-4-((3′-(3-((R)-3-hydroxypyrrolidin-1-yl)propoxy)-2,2′,5-trimethyl-[1,1′-biphenyl]-3-yl)methoxy)benzyl)amino)-3-hydroxy-2-methylpropanoic Acid, 2TFA]: 0.21 to 10 nM; `Cc1ccc(OCCCN2CC[C@@H](O)C2)c(C)c1-c1cccc(COc2cc(OCc3cncc(C#N)c3)c(C=O)cc2Cl)c1C` [Example 3027, 5-((4-chloro-2-formyl-5-((3′-(3-((R)-3-hydroxypyrrolidin-1-yl)propoxy)-2,2′,6′-trimethyl-[1,1′-biphenyl]-3-yl)methoxy)phenoxy)methyl)nicotinonitrile]: 10 to 100 nM; `Cc1ccc(OCCCN2CC[C@@H](O)C2)c(C)c1-c1cccc(COc2cc(OCc3cncc(C#N)c3)c(CN[C@@](C)(CO)C(=O)O)cc2Cl)c1C` [Example 3028, (2S)-2-((5-chloro-2-((5-cyanopyridin-3-yl)methoxy)-4-((3′-(3-((R)-3-hydroxypyrrolidin-1-yl)propoxy)-2,2′,6′-trimethyl-[1,1′-biphenyl]-3-yl)methoxy)benzyl)amino)-3-hydroxy-2-methylpropanoic Acid]: 0.21 to 10 nM. `Cc1ccc(OCCCN2CC[C@@H](O)C2)c(C)c1-c1cccc(COc2cc(OCc3cncc(C#N)c3)c(CN[C@](C)(CO)C(=O)O)cc2Cl)c1C` [Example 3029, (2R)-2-((5-chloro-2-((5-cyanopyridin-3-yl)methoxy)-4-((3′-(3-((R)-3-hydroxypyrrolidin-1-yl)propoxy)-2,2′,6′-trimethyl-[1,1′-biphenyl]-3-yl)methoxy)benzyl)amino)-3-hydroxy-2-methylpropanoic Acid]: the IC50 fell in the range of 0.21 to 10 nM. The result for `Cc1ccc(OCCCN2CC[C@@H](O)C2)c(C)c1-c1cccc(COc2cc(OCc3cncc(C#N)c3)c(CN3CCCC[C@H]3C(=O)O)cc2Cl)c1C` [Example 3030, (2S)-1-(5-chloro-2-((5-cyanopyridin-3-yl)methoxy)-4-((3′-(3-((R)-3-hydroxypyrrolidin-1-yl)propoxy)-2,2′,6′-trimethyl-[1,1′-biphenyl]-3-yl)methoxy)benzyl)piperidine-2-carboxylic Acid] reads 0.21 to 10 nM.

Take `Cc1ccc(OCCCN2CC[C@@H](O)C2)c(C)c1-c1cccc(COc2cc(OCc3cncc(C#N)c3)c(CN[C@@H](CO)C(=O)O)cc2Cl)c1C` [Example 3031, (2S)-2-((5-chloro-2-((5-cyanopyridin-3-yl)methoxy)-4-((3′-(3-((R)-3-hydroxypyrrolidin-1-yl)propoxy)-2,2′,6′-trimethyl-[1,1′-biphenyl]-3-yl)methoxy)benzyl)amino)-3-hydroxypropanoic Acid]: the half-inhibitory concentration (IC50) was in the range of 0.21 to 10 nM. Next, `COc1cc(OCc2cccc(-c3cccc(OCCCN4CC[C@@H](O)C4)c3C)c2C)c(Cl)cc1C=O` [Example 3032, (R)-5-chloro-4-((3′-(3-(3-hydroxypyrrolidin-1-yl)propoxy)-2,2′-dimethyl-[1,1′-biphenyl]-3-yl)methoxy)-2-methoxybenzaldehyde]: 100 to 2000 nM. The result for `COc1cc(OCc2cccc(-c3cccc(OCCCN4CC[C@@H](O)C4)c3C)c2C)c(Cl)cc1CN[C@@](C)(CO)C(=O)O` [Example 3033, (2S)-2-((5-chloro-4-((3′-(3-((R)-3-hydroxypyrrolidin-1-yl)propoxy)-2,2′-dimethyl-[1,1′-biphenyl]-3-yl)methoxy)-2-methoxybenzyl)amino)-3-hydroxy-2-methylpropanoic Acid] reads 0.21 to 10 nM; that for `COc1cc(OCc2cccc(-c3cccc(OCCCN4CC[C@@H](O)C4)c3C)c2C)c(Cl)cc1CN[C@](C)(CO)C(=O)O` [Example 3034, (2R)-2-((5-chloro-4-((3′-(3-((R)-3-hydroxypyrrolidin-1-yl)propoxy)-2,2′-dimethyl-[1,1′-biphenyl]-3-yl)methoxy)-2-methoxybenzyl)amino)-3-hydroxy-2-methylpropanoic Acid], 0.21 to 10 nM.

With `COc1cc(OCc2cccc(-c3cccc(OCCCN4CC[C@@H](O)C4)c3C)c2C)c(Cl)cc1CN[C@@H](CO)C(=O)O` [Example 3035, (2S)-2-((5-chloro-4-((3′-(3-((R)-3-hydroxypyrrolidin-1-yl)propoxy)-2,2′-dimethyl-[1,1′-biphenyl]-3-yl)methoxy)-2-methoxybenzyl)amino)-3-hydroxypropanoic Acid], the IC50 was 0.21 to 10 nM. Consider `COc1cc(OCc2cccc(-c3cccc(OCCCN4CC[C@@H](O)C4)c3C)c2C)c(Cl)cc1CN1CCCC[C@H]1C(=O)O` [Example 3036, (2S)-1-(5-chloro-4-((3′-(3-((R)-3-hydroxypyrrolidin-1-yl)propoxy)-2,2′-dimethyl-[1,1′-biphenyl]-3-yl)methoxy)-2-methoxybenzyl)piperidine-2-carboxylic Acid], for which the IC50 was in the range of 0.21 to 10 nM. Next, `Cc1c(COc2cc(OCc3cncc(C#N)c3)c(CN[C@@](C)(CO)C(=O)O)cc2Cl)cccc1-c1cccc(OCCCN2CCC(O)(c3ccccc3)C2)c1C` (stereo partly drawn) [Example 3037, (2S)-2-((5-chloro-2-((5-cyanopyridin-3-yl)methoxy)-4-((3′-(3-(3-hydroxy-3-phenylpyrrolidin-1-yl)propoxy)-2,2′-dimethyl-[1,1′-biphenyl]-3-yl)methoxy)benzyl)amino)-3-hydroxy-2-methylpropanoic Acid]: 0.21 to 10 nM; `Cc1c(COc2cc(OCc3cncc(C#N)c3)c(CN[C@](C)(CO)C(=O)O)cc2Cl)cccc1-c1cccc(OCCCN2CCC(O)(c3ccccc3)C2)c1C` (stereo partly drawn) [Example 3038, (2R)-2-((5-chloro-2-((5-cyanopyridin-3-yl)methoxy)-4-((3′-(3-(3-hydroxy-3-phenylpyrrolidin-1-yl)propoxy)-2,2′-dimethyl-[1,1′-biphenyl]-3-yl)methoxy)benzyl)amino)-3-hydroxy-2-methylpropanoic Acid]: 0.21 to 10 nM.

With `Cc1c(COc2cc(OCc3cncc(C#N)c3)c(CN[C@@H](CO)C(=O)O)cc2Cl)cccc1-c1cccc(OCCCN2CCC(O)(c3ccccc3)C2)c1C` (stereo partly drawn) [Example 3039, (2S)-2-((5-chloro-2-((5-cyanopyridin-3-yl)methoxy)-4-((3′-(3-(3-hydroxy-3-phenylpyrrolidin-1-yl)propoxy)-2,2′-dimethyl-[1,1′-biphenyl]-3-yl)methoxy)benzyl)amino)-3-hydroxypropanoic Acid], the IC50 lay within 0.21 to 10 nM.

For the origin of these results see patent US10745382B2 (BRISTOL-MYERS SQUIBB COMPANY, priority 2015, dated 2020).
